In the NIST ThermoML archive (doi:10.1021/acs.jced.5b00367):
± gives the expanded uncertainty stated by the source.

Experiment: mn = molality of the nth substance listed, in mol/kg
Details: 303.15 K, 100 kPa, Liquid, Alternating current cell with electrodes

Compound	electrical conductivity (m1 = 1e-05) [S/m]	electrical conductivity (m1 = 3e-05) [S/m]	electrical conductivity (m1 = 4e-05) [S/m]	electrical conductivity (m1 = 5e-05) [S/m]	electrical conductivity (m1 = 6e-05) [S/m]	electrical conductivity (m1 = 0.0001) [S/m]	electrical conductivity (m1 = 0.0005) [S/m]	electrical conductivity (m1 = 0.001) [S/m]	electrical conductivity (m1 = 0.005) [S/m]	electrical conductivity (m1 = 0.01) [S/m]	electrical conductivity (m1 = 0.015) [S/m]	electrical conductivity (m1 = 0.002) [S/m]	also measured
CCCCCCCCCC[N+](CC)(CC)CCCCCCCCCC.[Br-] [didecyldiethylammonium bromide] + O	0.00039 ± 0.00019	0.00072 ± 0.0003	0.00143 ± 0.00058	0.00224 ± 0.0009	0.00293 ± 0.0012	0.0034 ± 0.0014	0.0048 ± 0.0019	0.0092 ± 0.0037	0.0106 ± 0.0042	0.0132 ± 0.0053	0.016 ± 0.0064	–	electrical conductivity (m1 = 2e-05): 0.0006 ± 0.00025 S/m; electrical conductivity (m1 = 0.02): 0.0182 ± 0.0073 S/m
CCCCCCCCCCCC[N+](CC)(CC)CCCCCCCCCCCC.[Br-] [didodecyldiethylammonium bromide] + O	–	0.00146 ± 0.00059	0.00189 ± 0.00076	0.0025 ± 0.001	0.0032 ± 0.0013	0.00362 ± 0.0014	0.00484 ± 0.0019	0.00678 ± 0.0027	–	–	–	0.00928 ± 0.0037	electrical conductivity (m1 = 0.003): 0.0121 ± 0.0049 S/m
CCCCCCCCCCCCCCCC[N+](CC)(CC)CCCCCCCCCCCCCCCC.[Br-] [diethyldihexadecylammonium bromide] + O	0.00081 ± 0.00035	0.00114 ± 0.00046	0.00124 ± 0.0005	0.00132 ± 0.00053	0.00136 ± 0.00054	–	–	–	–	–	–	–	electrical conductivity (m1 = 5e-06): 0.00045 ± 0.00023 S/m; electrical conductivity (m1 = 1.5e-05): 0.00106 ± 0.00042 S/m
CCCCCCCCCCCCCCCC[N+](C)(C)C.[Br-] [N,N,N-trimethyl-1-hexadecanaminium bromide] + O	–	–	–	–	–	–	0.0061 ± 0.0024	0.011 ± 0.0044	–	–	–	0.0145 ± 0.0058	electrical conductivity (m1 = 0.0002): 0.0028 ± 0.0011 S/m; electrical conductivity (m1 = 0.0008): 0.0092 ± 0.0037 S/m; electrical conductivity (m1 = 0.00085): 0.01 ± 0.004 S/m; electrical conductivity (m1 = 0.0009): 0.0103 ± 0.0041 S/m; electrical conductivity (m1 = 0.0012): 0.012 ± 0.0048 S/m; electrical conductivity (m1 = 0.0014): 0.0128 ± 0.0051 S/m; electrical conductivity (m1 = 0.0016): 0.0135 ± 0.0054 S/m
CCCCCCCCCCCC[N+](C)(C)C.[Br-] [dodecyltrimethylammonium bromide] + O	–	–	–	–	–	–	–	0.014 ± 0.0056	0.055 ± 0.022	0.1 ± 0.04	0.15 ± 0.06	–	electrical conductivity (m1 = 0.012): 0.12 ± 0.048 S/m; electrical conductivity (m1 = 0.0181): 0.165 ± 0.066 S/m; electrical conductivity (m1 = 0.0201): 0.165 ± 0.066 S/m; electrical conductivity (m1 = 0.0252): 0.18 ± 0.072 S/m; electrical conductivity (m1 = 0.0302): 0.195 ± 0.078 S/m; electrical conductivity (m1 = 0.0402): 0.23 ± 0.092 S/m; electrical conductivity (m1 = 0.0502): 0.26 ± 0.1 S/m
